Structures are written as SMILES. Square brackets hold non-standard residues; d marks the D form. Peptide text beside a SMILES is read from it. * marks the point of attachment. dPhe(4-NHCONH2) = NC(=O)Nc1ccc(C[C@@H](N)C(=O)O)cc1; Dihydroorotyl(S) = O=C1C[C@@H](C(=O)*)NC(=O)N1; d(hArg(Et2)) = CCN=C(NCC)NCCCC[C@@H](N)C(=O)O; dPhe(4-NH2) = Nc1ccc(C[C@@H](N)C(=O)O)cc1; hArg(Et2) = CCN=C(NCC)NCCCC[C@H](N)C(=O)O; dPhe(4-Cl) = N[C@H](Cc1ccc(Cl)cc1)C(=O)O; Phe(4-NH2) = Nc1ccc(C[C@H](N)C(=O)O)cc1; d2Nal = N[C@H](Cc1ccc2ccccc2c1)C(=O)O; Lys(iPr) = CC(C)NCCCC[C@H](N)C(=O)O; NMeY = CN[C@@H](Cc1ccc(O)cc1)C(=O)O; d3Pal = N[C@H](Cc1cccnc1)C(=O)O

The test system of experiment [1] is human glioblastoma cell lines U-87MG or U-373MG, Kaposi sarcoma cell lines KSY-1 or KS-SLK, malignant melanoma cell line MV3 or BLM, medulloblastoma cell line …. The experiment is described as follows: Proliferation assay on cell cultures (Example 3). Type of experiment: cell-based. As to conditions: for anti-proliferative effects in tumor cells: cell lines of Example 3 treated with the substance; for anti-proliferative effect compared with Cetrorelix only: given additionally as a second GnRH antagonist. As for the experimental part: A human cell line, such as the well known human glioblastoma cell lines U-87MG or U-373MG (Pinski et al., supra), or a human cell line such as the well known Kaposi sarcoma cell lines KSY-1 or KS-SLK (Parkash et al., 1996, New England Journal of Medicine, 335, 17, 1261-1269), or a human cell line such as the well known human malignant melanoma cell line MV3 or BLM (Goldbrunner, R. H., et al., 1996, Anticancer Research 16 (6B), 3679-87), or a human medulloblastoma cell line such as the well known cell line Daoy or D283 MED (Stockhammer et al., 1995, J. Neurosurgery, 83, 672-681), or human meningeoma cell cultures (Boyle-Wash, E., et al., 1995, Journal of Endocrinology, 145, 155-161), are cultured as previously described for the above-mentioned cell lines and then treated with a concentration of the GnRH agonist Triptorelin®, GnRH antagonist SB-75 (Cetrorelix®) or GnRH antagonist Ramorelix®. […]
In another embodiment, the above-mentioned cell lines are treated as described by Emons, G., et al., 1993, supra, and Irmer, G., 1995, supra, with a concentration of the GnRH peptide antagonist Ac-D-Nal(2)-D-4-ClPhe-D-Pal-Ser-1-MePal-D-IsopropylLys-Leu-IsopropylLys-Pro-D-AlaNH2 (also known as Ant 135-25; the Mepal portion is known as 1-Methyl-3-[3′-pyridyl]-alanine), Teverelix (also known as Antarelix®), Cetrorelix (also known as Cetrotide®), Abarelix (also known as Plenaxis®), D-63153 (also known as Ozarelix®), acyline, azaline B, antide (also known as Iturelix®), Degarelix (FE200486), Ganirelix, Nal-Glu, Orntide (also known as Ornirelix®), Elagolix, or with antagonist peptidomimetic ((2S)-2-[5-[2-(2-azabicyclo[2,2,2]oct-2-yl)-1,1-dimethyl-2-oxoethyl]-2-(3,5-dimethylphenyl)-1H-indol-3-yl]-N-(2-pyridin-4-ylethyl-)propan-1-amine (also known as “IN3”).
In another embodiment, the cell lines used above were each additionally treated with a second GnRH antagonist, namely one of the GnRH antagonists Cetrorelix®, Ant 135-25, IN3, degarelix, Antarelix®, Antide®, and Ramorelix® or alternatively with one of the GnRH antagonists that have been disclosed in U.S. Pat. Nos. 6,939,88, 6,200,957, 5,296,468, 4,851,385, 7,361,633, 7,288,517, WO/2009/106597 or PCT/EP2009/052326, U.S. Pat. Nos. 5,480,969, 5,198,533, or UK Patent GB 2 246782 B, wherein these additional treatment procedures were carried out in a manner similar to those reported in Emons et al., supra, using SB 75 (Cetrorelix®). […]

In experiment [2] the test system is small cell lung carcinoma cell lines NCI-H1688, NCI-H1417, NCI-H1672, NCI-H1836, DMS-79, DM-553, DMS-114, SW-1271, NCI-H2227, NCI-HI1963, SHP-77 and H-69 AR. The experiment is described as follows: Proliferation assay on small cell lung carcinoma cell lines (Example 3). The experiment is classed as cell-based, human. The note with it: small cell lung carcinoma cell lines treated with the substance. As to the method:
In another embodiment, the small cell lung carcinoma cell lines NCI-H1688, NCI-H1417, NCI-H1672, NCI-H1836, DMS-79, DM-553, DMS-114, SW-1271, NCI-H2227, NCI-HI1963 and SHP-77 in addition to the multidrug-resistant small cell lung carcinoma cell line H-69 AR, are cultured as described above and then treated as described by Emons, G., et al., 1993, supra, and Irmer, G., 1995, supra, with various concentrations of the GnRH agonists (D-Lys6)-GnRH, Lutrelin, Histrelin, Nafarelin, Azagly-Nafarelin, Deslorelin, Cystorelin, Decapeptyl, Gonadorelin, GnRH, D-Lys(6)-GnRH II, Lamprey GnRH II, (D-Lys6)-Lamprey GnRH, (D-Lys6)-Lamprey GnRH II and Lamprey GnRH III.
In another embodiment, the small cell lung carcinoma cell lines NCI-H1688, NCI-H1417, NCI-H1672, NCI-H1836, DMS-79, DM-553, DMS-114, SW-1271, NCI-H2227, NCI-HI1963 and SHP-77 in addition to the multidrug-resistant small cell lung carcinoma cell line H-69 AR, are cultured as described above for the above-mentioned cell lines, and then treated as described by Emons, G., et al., 1993, supra, and Irmer, G., 1995, supra, with a concentration of the GnRH antagonist Cetrorelix (also known as Cetrotide®) or with a GnRH peptide antagonist Ac-D-Nal(2)-D-4-ClPhe-D-Pal-Ser-1-MePal-D-IsopropylLys-Leu-IsopropylLys-Pro-D-AlaNH2 wherein Mepal is 1-Methyl-3-[3′-pyridyl]-alanine or Ant 135-25 (also known as Ac-D-Nal(2)-D-4-Cl-Phe-D-Pal-Ser-1-MePal-D-IsopropylLys-Leu-IsopropylLys-Pro-D-AlaNH2), Teverelix (also known as Antarelix®), Cetrorelix (also known as Cetrotide®), Abarelix (also known as Plenaxis®), D-63153 (also known as Ozarelix®), acyline, azaline B, antide (also known as Iturelix®), Degarelix (FE200486), Ganirelix, Nal-Glu, Orntide (also known as Ornirelix®) or with antagonist peptidomimetic ((2S)-2-[5-[2-(2-azabicyclo[2,2,2]oct-2-yl)-1,1-dimethyl-2-oxoethyl]-2-(3,5-dimethylphenyl)-1H-indol-3-yl]-N-(2-pyridin-4-ylethyl-)propan-1-amine (also known as “IN3”).

With `CC(=O)N[C@H](Cc1ccc2ccccc2c1)C(=O)N[C@H](Cc1ccc(Cl)cc1)C(=O)N[C@H](Cc1cccnc1)C(=O)N[C@@H](CO)C(=O)N(C)[C@@H](Cc1ccc(O)cc1)C(=O)N[C@H](CC(N)=O)C(=O)N[C@@H](CC(C)C)C(=O)N[C@@H](CCCCNC(C)C)C(=O)N1CCC[C@H]1C(=O)N[C@H](C)C(N)=O` [Abarelix] (Ac-[d2Nal][dPhe(4-Cl)][d3Pal]S[NMeY][dN]L[Lys(iPr)]P[dA]-NH2), the “anti-proliferative effects in tumor cells” value (“anti-proliferative effects” for short) in experiment [1] and in experiment [2] was “Significant anti-proliferative effects” each time.

On to `CC(C)C[C@H](NC(=O)[C@@H](Cc1c[nH]c2ccccc12)NC(=O)[C@H](Cc1ccc(O)cc1)NC(=O)[C@H](CO)NC(=O)[C@H](Cc1c[nH]c2ccccc12)NC(=O)[C@H](Cc1c[nH]cn1)NC(=O)[C@@H]1CCC(=O)N1)C(=O)N[C@@H](CCCNC(=N)N)C(=O)N1CCC[C@H]1C(=O)NCC(N)=O` [Decapeptyl], for which, in experiment [2], the “anti-proliferative effects” value is listed as “Significant anti-proliferative effects”.

Take `CC(=O)N[C@H](Cc1ccc2ccccc2c1)C(=O)N[C@H](Cc1ccc(Cl)cc1)C(=O)N[C@H](Cc1cccnc1)C(=O)N[C@@H](CO)C(=O)N[C@@H](Cc1ccc(NC(=O)[C@@H]2CC(=O)NC(=O)N2)cc1)C(=O)N[C@H](Cc1ccc(NC(N)=O)cc1)C(=O)N[C@@H](CC(C)C)C(=O)N[C@@H](CCCCNC(C)C)C(=O)N1CCC[C@H]1C(=O)N[C@H](C)C(N)=O` [Degarelix] (Ac-[d2Nal][dPhe(4-Cl)][d3Pal]S[Phe(4-NH2)](Dihydroorotyl(S))[dPhe(4-NHCONH2)]L[Lys(iPr)]P[dA]-NH2): in experiment [1], the “anti-proliferative effects” value is on record as “Significant anti-proliferative effects” and the “anti-proliferative effect compared with Cetrorelix only” value is given as “significantly stronger anti-proliferative effect”. In addition, in experiment [2], the “anti-proliferative effects” value is reported as “Significant anti-proliferative effects”.

For `CCNC(=O)[C@@H]1CCCN1C(=O)[C@H](CCCN=C(N)N)NC(=O)[C@H](CC(C)C)NC(=O)[C@@H](Cc1c[nH]c2ccccc12)NC(=O)[C@H](Cc1ccc(O)cc1)NC(=O)[C@H](CO)NC(=O)[C@H](Cc1c[nH]c2ccccc12)NC(=O)[C@H](Cc1cnc[nH]1)NC(=O)[C@@H]1CCC(=O)N1` [Deslorelin], the “anti-proliferative effects” value in experiment [1] and in experiment [2] was “Significant anti-proliferative effects” in each case.

With `COc1cccc(-c2c(C)n(Cc3c(F)cccc3C(F)(F)F)c(=O)n(C[C@H](NCCCC(=O)O)c3ccccc3)c2=O)c1F` [Elagolix, 4-[[(1R)-2-[5-(2-Fluoro-3-methoxyphenyl)-3-[[2-fluoro-6(trifluoromethyl)phenyl]methyl]-3,6-dihydro-4-methyl-2,6-dioxo-1(2H)-pyrimidinyl]-1-phenylethyl]amino]butanoic acid], in experiment [1], the “anti-proliferative effects” value was “Significant anti-proliferative effects”.

As to `CCN=C(NCC)NCCCC[C@H](NC(=O)[C@H](CC(C)C)NC(=O)[C@@H](CCCCNC(=NCC)NCC)NC(=O)[C@H](Cc1ccc(O)cc1)NC(=O)[C@H](CO)NC(=O)[C@@H](Cc1cccnc1)NC(=O)[C@@H](Cc1ccc(Cl)cc1)NC(=O)[C@@H](Cc1ccc2ccccc2c1)NC(C)=O)C(=O)N1CCC[C@H]1C(=O)N[C@H](C)C(N)=O` [Ganirelix] (Ac-[d2Nal][dPhe(4-Cl)][d3Pal]SY[d(hArg(Et2))]L[hArg(Et2)]P[dA]-NH2), the “anti-proliferative effects” value in experiment [1] and in experiment [2] was “Significant anti-proliferative effects” in each case.

With `CC(C)C[C@H](NC(=O)CNC(=O)[C@H](Cc1ccc(O)cc1)NC(=O)[C@H](CO)NC(=O)[C@H](Cc1c[nH]c2ccccc12)NC(=O)[C@H](Cc1cnc[nH]1)NC(=O)[C@@H]1CCC(=O)N1)C(=O)N[C@@H](CCCNC(=N)N)C(=O)N1CCC[C@H]1C(=O)NCC(N)=O` [Gonadorelin], the “anti-proliferative effects” value in experiment [1] and in experiment [2] was “Significant anti-proliferative effects” throughout.

Turning to `CCNC(=O)[C@@H]1CCCN1C(=O)[C@H](CCCNC(=N)N)NC(=O)[C@H](CC(C)C)NC(=O)[C@@H](Cc1cn(Cc2ccccc2)cn1)NC(=O)[C@H](Cc1ccc(O)cc1)NC(=O)[C@H](CO)NC(=O)[C@H](Cc1c[nH]c2ccccc12)NC(=O)[C@H](Cc1cnc[nH]1)NC(=O)[C@@H]1CCC(=O)N1` [Histrelin], the “anti-proliferative effects” value in experiment [1] and in experiment [2] was “Significant anti-proliferative effects” each time.

As for `Cc1cc(C)cc(-c2[nH]c3ccc(C(C)(C)C(=O)N4CC5CCC4CC5)cc3c2[C@H](C)CNCCc2ccncc2)c1` [IN3, (2S)-2-[5-[2-(2-azabicyclo[2,2,2]oct-2-yl)-1,1-dimethyl-2-oxoethyl]-2-(3,5-dimethylphenyl)-1H-indol-3-yl]-N-(2-pyridin-4-ylethyl-)propan-1-amine], in experiment [1], the “anti-proliferative effects” value is on record as “Significant anti-proliferative effects” and the “anti-proliferative effect compared with Cetrorelix only” value was “significantly stronger anti-proliferative effect”. The “anti-proliferative effects” value in experiment [2] is recorded as “Significant anti-proliferative effects”.

Turning to `CCNC(=O)[C@@H]1CCCN1C(=O)[C@H](CCCN=C(N)N)NC(=O)[C@H](CC(C)C)N(C)C(=O)[C@@H](Cc1c[nH]c2ccccc12)NC(=O)[C@H](Cc1ccc(O)cc1)NC(=O)[C@H](CO)NC(=O)[C@H](Cc1c[nH]c2ccccc12)NC(=O)[C@H](Cc1cnc[nH]1)NC(=O)[C@@H]1CCC(=O)N1` [Lutrelin], the “anti-proliferative effects” value in experiment [1] and in experiment [2] was “Significant anti-proliferative effects” each time.

Turning to `CC(=O)Nc1ccc(C[C@H](NC(=O)[C@H](CO)NC(=O)[C@@H](Cc2cccnc2)NC(=O)[C@@H](Cc2ccc(Cl)cc2)NC(=O)[C@@H](Cc2ccc3ccccc3c2)NC(C)=O)C(=O)N[C@H](Cc2ccc(NC(C)=O)cc2)C(=O)N[C@@H](CC(C)C)C(=O)N[C@@H](CCCCNC(C)C)C(=O)N2CCC[C@H]2C(=O)N[C@H](C)C(N)=O)cc1` [acyline] (Ac-[d2Nal][dPhe(4-Cl)][d3Pal]S[Phe(4-NH2)](Ac)[dPhe(4-NH2)](Ac)L[Lys(iPr)]P[dA]-NH2), the “anti-proliferative effects” value in experiment [1] and in experiment [2] was “Significant anti-proliferative effects” in each case.

Values taken from patent US8962558B2, “Methods for reducing GnRH-positive tumor cell proliferation using the GnRH antagonist IN3” (priority 1997, dated 2015).
